One experiment deals with PRMT1 (Homo sapiens, UniProt Q99873). Description: AlphaLISA PRMT1 activity assay (H4R3me). The conditions noted are these: for IC50: AlphaLISA, hPRMT1, 10-concentration mode, threefold dilutions starting at 100 μM; for LE: ligand efficiency calculated from PRMT1 IC50 as a surrogate for KD.
For experiment [1], the target named is T1, human PRMT4 (full length) (Homo sapiens, UniProt Q86X55).
T1 construct: Full-length recombinant PRMT4 (Active motif, # 81107); purchased Active motif # 81107
T1 sequence (Q86X55 1-608): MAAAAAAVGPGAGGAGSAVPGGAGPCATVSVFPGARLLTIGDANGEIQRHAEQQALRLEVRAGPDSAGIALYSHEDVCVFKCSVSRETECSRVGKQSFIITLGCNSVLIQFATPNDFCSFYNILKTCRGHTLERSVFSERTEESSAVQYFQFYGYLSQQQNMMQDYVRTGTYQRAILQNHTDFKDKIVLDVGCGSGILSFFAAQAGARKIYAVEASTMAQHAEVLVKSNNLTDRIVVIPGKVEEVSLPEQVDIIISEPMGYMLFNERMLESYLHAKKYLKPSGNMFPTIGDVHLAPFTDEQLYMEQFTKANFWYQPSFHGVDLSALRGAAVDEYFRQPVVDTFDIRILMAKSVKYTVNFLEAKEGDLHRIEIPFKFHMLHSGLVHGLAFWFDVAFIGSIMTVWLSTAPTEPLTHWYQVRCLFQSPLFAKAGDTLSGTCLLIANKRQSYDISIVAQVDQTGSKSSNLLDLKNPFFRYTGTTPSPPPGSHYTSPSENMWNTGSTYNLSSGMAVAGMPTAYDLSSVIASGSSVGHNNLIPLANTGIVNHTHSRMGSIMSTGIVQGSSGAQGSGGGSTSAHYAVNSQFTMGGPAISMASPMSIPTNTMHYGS
Description: SPR binding to immobilized PRMT4. How it is done: To this aim, human PRMT4 (full length) was covalently immobilized on a sensor chip surface using an amine-coupling approach, and the three compounds were injected at different concentrations over the protein surface. To reduce false positives from detergent-sensitive, nonspecific aggregation-based binding, detergents (0.05% Tween-20) were added to the running buffer in all experiments.
SPR experiments were performed on a Biacore T200 biosensor (Cytiva). PBS buffer (phosphate-buffered saline, pH 7.4) supplemented with 0.05% Tween-20 was used as the running buffer. […] One flow cell was left empty for background subtractions. […] Each compound was tested in […], prepared starting from 640 to 10 nM. Binding experiments were performed at 25 °C by using a flow rate of 30 μL/min, with 90 s monitoring of association and 90 s monitoring of dissociation. Regeneration of the surfaces was performed, when necessary, by a 10 s injection of 5 mM NaOH. […] The corrected sensorgrams for each compound were fitted simultaneously using a 1:1 Langmuir model to obtain equilibrium dissociation constants (KD) and kinetic dissociation (koff) and association (kon) constants.
Background: SPR reads the build-up and loss of mass on a sensor chip optically.

The mark [2] stands for this setting: read-out: % PRMT1 residual activ. @ 100 μM.
Setting [3] is: read-out: % PRMT1 residual activity at 100 uM.

Where two headings read alike, the source gives them in different places.

PRMT1, sequence (Q99873 whole entry): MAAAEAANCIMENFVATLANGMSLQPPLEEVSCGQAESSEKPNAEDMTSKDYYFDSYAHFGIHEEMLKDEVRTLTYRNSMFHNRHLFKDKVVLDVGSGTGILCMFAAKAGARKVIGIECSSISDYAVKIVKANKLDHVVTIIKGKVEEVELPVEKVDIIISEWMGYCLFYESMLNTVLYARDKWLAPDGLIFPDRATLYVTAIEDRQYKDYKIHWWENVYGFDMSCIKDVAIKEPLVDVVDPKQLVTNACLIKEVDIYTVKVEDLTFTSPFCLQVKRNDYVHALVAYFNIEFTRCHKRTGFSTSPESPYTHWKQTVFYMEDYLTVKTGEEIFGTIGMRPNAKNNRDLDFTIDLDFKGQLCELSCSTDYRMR
Description for PRMT1: Then, we resolved to determine their effect on the catalytic activity of human recombinant PRMT1, chosen as representative of class I PRMTs. […] PRMT1 activity assays were performed by taking advantage of the AlphaLISA homogeneous proximity assay.
The reaction was incubated for 60 min, and then it was stopped by the addition of 5 μL of antimethyl-histone H4 arginine 3 (H4R3me) AlphaLISA acceptor beads (PerkinElmer, #AL150) (final concentration, 20 μg/mL) diluted in Epigenetic Buffer 1X (PerkinElmer, #AL008).
For each incubation step, the OptiPlate was sealed with protective foil to prevent evaporation and contamination. Donor and acceptor beads were added in subdued light.
The 100% activity (positive control) was reached using the vehicle (DMSO) while the 0% activity (negative control) was obtained without the protein. Data were analyzed using Excel software. Values obtained for each compound are mean ± SD determined for three separate experiments.

Turning to `COC(=O)c1cc(O)c2cc(NC(=O)[C@H](CCSC)NC(=O)Nc3ccc(OC)cc3)ccc2c1` [9d, Methyl (S)-4-Hydroxy-6-(2-(3-(4-methoxyphenyl)ureido)-4-(methylthio)butanamido)-2-naphthoate], the remaining activity at 100 µM on PRMT1 (setting [2]) and on PRMT1 (setting [3]) was 75.9 ± 4.8% throughout.

`CNC(=N)NCCCNC(=O)Nc1ccc2cc(C(=O)OC)cc(O)c2c1` [7d, Methyl 4-Hydroxy-6-(3-(3-(3-methylguanidino)propyl)ureido)-2-naphthoate]: on PRMT1, 400 nM corresponded to half-maximal inhibition (IC50). Also, on PRMT1, the LE is listed as 0.33. For the same molecule, the remaining activity at 100 µM at PRMT1 (setting [2]) and on PRMT1 (setting [3]) was 0.2 ± 0.1% in each case.

With `COC(=O)c1cc(O)c2cc(NC(=O)[C@@H](N)CCCNC(=N)N)ccc2c1` [11c, Methyl (S)-6-(2-Amino-5-guanidinopentanamido)-4-hydroxy-2-naphthoate], the remaining activity at 100 µM on PRMT1 (setting [2]) and on PRMT1 (setting [3]) was 34.2 ± 5.1% each time.

As to `C[S+](CC[C@H](N)C(=O)[O-])C[C@H]1O[C@@H](n2cnc3c(N)ncnc32)[C@H](O)[C@@H]1O` (stereo partly drawn) [SAM, S-adenosyl-L-methionine, reference compound], in experiment [1], binding was characterised by a dissociation constant (Kd) of 9.6 nM. In experiment [1] (SPR, immobilized PRMT4), this molecule gave a koff of 0.003 s⁻¹. The kon in experiment [1] (SPR, immobilized PRMT4, read-out: kon) was 290000 M⁻¹ s⁻¹. Moreover, in experiment [1] (in vitro residence time, τ = 1/koff), the “τR” value is 333.3 s.

Turning to `COC(=O)c1cc(O)c2cc(NC(=O)CCCCNC3=NCCN3)ccc2c1` [5g, Methyl 6-(5-((4,5-Dihydro-1H-imidazol-2-yl)amino)pentanamido)-4-hydroxy-2-naphthoate], the remaining activity at 100 µM at PRMT1 (setting [2]) and at PRMT1 (setting [3]) was 122 ± 5.8% in each case.

With `COC(=O)c1cc(O)c2cc(NC(=O)[C@@H](N)CCSC)ccc2c1` [9c, Methyl (S)-6-(2-Amino-4-(methylthio)butanamido)-4-hydroxy-2-naphthoate], the remaining activity at 100 µM on PRMT1 (setting [2]) and at PRMT1 (setting [3]) was 92.1 ± 15.8% in each case.

Turning to `CN(C)C(=N)NCCCCC(=O)Nc1ccc2cc(C(=O)O)cc(O)c2c1` [6e, 6-(5-(3,3-Dimethylguanidino)pentanamido)-4-hydroxy-2-naphthoic Acid], the remaining activity at 100 µM at PRMT1 (setting [2]) and at PRMT1 (setting [3]) was 36.8 ± 0.3% in each case.

As to `COC(=O)c1cc(O)c2cc(NC(=O)NCCCn3ccnc3)ccc2c1` [7f, Methyl 6-(3-(3-(1H-Imidazol-1-yl)propyl)ureido)-4-hydroxy-2-naphthoate], the remaining activity at 100 µM on PRMT1 (setting [2]) and at PRMT1 (setting [3]) was 65.6 ± 2.1% each time.

Consider `COC(=O)c1cc(O)c2cc(NC(=O)NCCCNC(=N)N)ccc2c1` [7a, Methyl 6-(3-(3-Guanidinopropyl)ureido)-4-hydroxy-2-naphthoate], for which, on PRMT1, it took 1600 nM to reach half-maximal inhibition (IC50) and the LE is on record as 0.31. Besides, on PRMT1 (setting [2]), the remaining activity at 100 µM amounted to 0.4 ± 0.1%. The remaining activity at 100 µM on PRMT1 (setting [3]) is 0.4 ± 0.1%.

On to `O=C(NCCCn1ccnc1)Nc1ccc2cc(C(=O)O)cc(O)c2c1` [8b, 6-(3-(3-(1H-Imidazol-1-yl)propyl)ureido)-4-hydroxy-2-naphthoic Acid], for which the remaining activity at 100 µM on PRMT1 (setting [2]) and on PRMT1 (setting [3]) was 36.9 ± 10.5% in each case.

In the case of `COC(=O)c1cc(O)c2cc(NC(=O)CNC(=O)Nc3ccc(OC)cc3)ccc2c1` [10c, Methyl 4-Hydroxy-6-(2-(3-(4-methoxyphenyl)ureido)acetamido)-2-naphthoate], the remaining activity at 100 µM on PRMT1 (setting [2]) and at PRMT1 (setting [3]) was 87.1 ± 2.9% throughout.

As for `N=C(N)NCCCCNC(=O)Nc1ccc2cc(C(=O)O)cc(O)c2c1` [8a, 6-(3-(4-Guanidinobutyl)ureido)-4-hydroxy-2-naphthoic Acid], the remaining activity at 100 µM at PRMT1 (setting [2]) and on PRMT1 (setting [3]) was 31.5 ± 3.1% throughout.

With `N=C(N)NCCCCC(=O)Nc1ccc2cc(C(=O)O)cc(O)c2c1` [6a, 6-(5-Guanidinopentanamido)-4-hydroxy-2-naphthoic Acid], the remaining activity at 100 µM at PRMT1 (setting [2]) and at PRMT1 (setting [3]) was 69.7 ± 2% in each case.

For the molecule `COC(=O)c1cc(O)c2cc(NC(=O)NCCCCCNC(=N)N)ccc2c1` [7c, Methyl 6-(3-(5-Guanidinopentyl)ureido)-4-hydroxy-2-naphthoate], at PRMT1, half-maximal inhibition (IC50) was put at 1200 nM and the LE is on record as 0.30. At PRMT1 (setting [2]), the remaining activity at 100 µM is -0.91 ± 0.1%. Also, the remaining activity at 100 µM at PRMT1 (setting [3]) is -0.91 ± 0.1%.

On to `COC(=O)c1cc(O)c2cc(NC(=O)CCCCCCNC(=N)N)ccc2c1` [5c, Methyl 6-(7-Guanidinoheptanamido)-4-hydroxy-2-naphthoate], for which, at PRMT1, half-maximal inhibition (IC50) was put at 3800 nM and the LE is listed as 0.27. Further, the remaining activity at 100 µM on PRMT1 (setting [2]) is -0.49 ± 0.1%. The remaining activity at 100 µM at PRMT1 (setting [3]) is -0.49 ± 0.1%.

As to `COC(=O)c1cc(O)c2cc(NC(=O)CCCCNC(=N)N)ccc2c1` [5a, Methyl 6-(5-Guanidinopentanamido)-4-hydroxy-2-naphthoate], the remaining activity at 100 µM at PRMT1 (setting [2]) and at PRMT1 (setting [3]) was 35 ± 0.3% throughout.

`N=C(N)NCCCCCC(=O)Nc1ccc2cc(C(=O)O)cc(O)c2c1` [6b, 6-(6-Guanidinohexanamido)-4-hydroxy-2-naphthoic Acid]: the remaining activity at 100 µM at PRMT1 (setting [2]) and on PRMT1 (setting [3]) was 65.9 ± 1% in each case.

For the molecule `O=C(CCCCNC1=NCCN1)Nc1ccc2cc(C(=O)O)cc(O)c2c1` [6f, 6-(5-((4,5-Dihydro-1H-imidazol-2-yl)amino)pentanamido)-4-hydroxy-2-naphthoic Acid], the remaining activity at 100 µM at PRMT1 (setting [2]) and at PRMT1 (setting [3]) was 25.1 ± 1.5% in each case.

Take `CNC(=N)NCCCCCC(=O)Nc1ccc2cc(C(=O)O)cc(O)c2c1` [6d, 4-Hydroxy-6-(6-(3-methylguanidino)hexanamido)-2-naphthoic Acid]: the remaining activity at 100 µM on PRMT1 (setting [2]) and on PRMT1 (setting [3]) was 50.4 ± 0.2% throughout.

By IC50 is commonly meant the concentration that gives 50% inhibition. A low value points to greater potency. Usually Kd stands for the concentration at which binding is half-saturated. Read a high Kd as a looser complex. Usually koff stands for the first-order rate constant of dissociation. The low end stands for slow dissociation, the high end for fast dissociation. A word on the kon: it is the second-order rate constant of association.

(Values after article PMC9469100, “Turning Nonselective Inhibitors of Type I Protein Arginine Methyltransferases into Potent and Selective Inhibitors of Protein Arginine Methyltransferase 4 through a Deconstruction–Reconstruction and Fragment-Growing Approach” (Journal of Medicinal Chemistry, 2022).)
